Reference: patent US10118934B2 (Wisconsin Alumni Research Foundation, priority 2014, dated 2018)
Converted amounts (≈) assume the structure as drawn. “And” between values parts separate entries of the source, which are not always exact repeats. Equal entries are not always repeated. “Also recorded” adds a separate entry of the source. Where two headings read alike, the source gives them in different places.

Key:
[1] = dynamic light scattering (DLS) detection of colloidal aggregation; format: physicochemical
Description: To evaluate aggregation by DLS compounds were diluted from concentrated stocks in DMSO into filtered 50 mM potassium phosphate, pH 7.0. The final DMSO concentration was 1%, and compound concentrations were usually 100 μM. Samples were run in duplicates. All measurements were made at room temperature using a DynaPro MS/X (Wyatt Technology) with a 55 mW laser at 826.6 nm. The laser power was 100%, and the detector angle was 90°.

[2] = target: T1, MtUGM (Mycobacterium tuberculosis, UniProt P9WIQ1); conditions: compound library screened against MtUGM; cited from earlier work
[3] = target: T2, KpUGM (Klebsiella pneumoniae, UniProt Q48485); assay: biochemical; format: binding; conditions: for Kd: probe displacement in competitive-binding FP assay
T2 construct: His-tag; made in house; host or cells: E. coli BL21(DE3)
Description: A fluorescence polarization assay was used to measure ligand binding to KpUGM [Soltero-Higgin et al. 2004, Carlson et al. 2006] Tumbling of the fluorescein-UDP conjugated probe was measured on a Tecan M1000 microplate reader, exciting with 470 nm light and monitoring emission at 525 nm. Each condition was tested in triplicate in the presence of 220 nM KpUGM and 23.3 nM of the probe. Data was fit with a one-site binding nonlinear regression in GraphPad Prism 6.

[4] = target: T2, KpUGM; format: biochemical; conditions: for effect of detergent on KpUGM inhibition: presence and absence of 0.025% Tween 80; for Ki: Lineweaver-Burk analysis, competitive inhibition
Description: Anal Biochem, 1996: p. […] J Med Chem, 2002. 45(8): p. 1712-22] we repeated the assay in the presence of detergent (0.025% Tween 80).
(§1) Enzymatic activity of recombinant UGM was monitored using an HPLC-based assay [Wesener et al., 2013; Lee et al. 1996; Zhang, Q. and H.-w. […] J. Amer. Chem. Soc., 2000. 122(38): p. 9065-9070]. Reactions were performed in duplicate at 22° C. in 50 mM NaH2PO4 buffer (pH 7) with 20 nM enzyme and 20 mM fresh sodium dithionite. Small molecules were added from DMSO stocks to a final concentration of 1% DMSO. Concentration of UDP-Galf [Marlow, A. L. and L. L. Kiessling, Improved Chemical Synthesis of UDP-Galactofuranose. Org Lett, 2001. 3(16): p. 2517-2519] was held constant at the Km of the UGM homolog being analyzed, except for generation of Lineweaver-Burk plots. Reaction time and substrate concentration were varied for Lineweaver-Burk analysis, and each condition was tested in triplicate. Quenched reactions were run through a CarboPac PA-100 column (Thermo Scientific) on an Agilent 1260 Infinity HPLC using an isocratic elution of 200 mM ammonium acetate (pH 8) to separate substrate and product peaks.

[5] = target: AmpC β-lactamase (Escherichia coli, UniProt P00811); format: biochemical; conditions: for inhibition of AmpC β-lactamase: 100 μM
Description: (§2) Compounds were tested for inhibition of Malate Dehydrogenase and AmpC β-lactamase as reported. Assays were performed in 50 mM potassium phosphate buffer, pH 7.0 at 25° C. For AmpC the molecules were mixed with buffer and CENTA substrate (50 μM; Tydock Pharma; Modena, Italy) to a final concentration of 1% DMSO (v/v). Reactions were initiated by addition of β-Lactamase (1 nM). Change in absorbance was monitored at 405 nm for 3 minutes. For Malate Dehydrogenase assay (MDH; Sigma Cat# M-7032), the molecule was mixed with buffer and 2 nM final concentration of the enzyme to a final concentration of 1% DMSO (v/v) and were incubated for five minutes. MDH reactions were started by adding substrates: Oxaloacetic acid (20 mM stock in buffer, prepared fresh daily; Sigma Cat# O4126) to a final concentration 200 μM and NADH (20 mM stock in buffer—prepare fresh daily; Sigma Cat# N-4505) to a final concentration 200 μM. Change in absorbance was monitored at […] for 2.5 minutes. Absorbance was monitored on an HP 8453 UV—visible spectrophotometer (Agilent, Technologies, Santa Clara, Calif.). The assays were performed in duplicate in methacrylate disposable cuvettes.

[6] = target: T3, Malate Dehydrogenase (MDH) (Thermus thermophilus, UniProt P10584); assay: aggregation counter screen, malate dehydrogenase inhibition; format: biochemical
T3 construct: purchased Sigma M-7032
Description: as §2

[7] = test system: M. smegmatis; assay: microbroth dilution assay with alamar Blue readout; format: cell-based, Mycobacterium smegmatis; conditions: liquid culture
[8] = test system: B. subtilis; assay: disk diffusion assay; conditions: solid media, 100 nmol per disk
Description: (§3) 1-8], and M. smegmatis were grown, the former two species in LB broth and the later in 7H9 Middlebrook media. Cells were diluted to an OD600 of 0.2 in fresh media and spread (100 μL) onto LB agar plates. Following an hour of incubation at 37° C., sterile cloning disks (3.2 mm diameter, Scienceware) impregnated with 100 nmol of compound or 2 μL of DMSO were placed on the surface of the inoculated solid media. Cells were incubated at 37° C. overnight. Plates with M. smegmatis were incubated 3 additional days at room temperature. Zones of inhibition were measured from the outer edge of the cloning disk to the border of cell growth.

[9] = test system: B strain E. coli; assay: broth microdilution, control strain without UGM; format: cell-based; conditions: control strain without UGM ortholog
[10] = test system: B. subtilis; assay: broth microdilution, control strain without UGM; format: cell-based; conditions: control strain without UGM ortholog
[11] = test system: HEK293 cells; assay: cytotoxicity assay (CellTiter-Glo); format: cell-based
Description: Four thousand HEK 293T cells were added to wells of a sterile 96-well plate in 99 μl DMEM with 10% FBS. The plate was incubated for 24 hours at 37° C. with 5% CO2 to allow cells to attach. Cells were then treated with serially diluted small molecules or a vehicle control. The final DMSO concentration was 1% in each well. After 24 hours of incubation, viability of the treated cells was analyzed using CellTiter-Glo Luminescent Cell Viability Assay (Promega). Viability readings were normalized to DMSO control wells.

[12] = test system: M. smegmatis; assay: disk diffusion assay; conditions: solid media, 100 nmol per disk
Description: as §3

[13] = test system: E. coli; assay: disk diffusion assay; format: cell-based; conditions: solid media, tested concentration
Description: J Bacteriol, 1989. 171(3): p. […] Cells were incubated at 37° C. overnight.

[14] = target: T1, MtUGM; assay: HPLC-based UGM activity assay, homolog specificity; format: biochemical; conditions: 100 μM compound
[15] = target: T4, CdUGM (Corynebacterium diphtheriae, UniProt Q6NER4); assay: HPLC-based UGM activity assay, homolog specificity; format: biochemical, C. diphtheriae; conditions: 100 μM compound
T4 construct: Open reading frame coding for residue 18-404 of CdUGM was amplified; His-tag with TEV cleavage site (N); made in house; host or cells: Escherichia coli ER2523
Description: The specificity of in vitro UGM inhibition was assessed using purified recombinant UGM homologs. MtUGM and C. diptheriae UGM (CdUGM) share about 43% sequence identity with KpUGM, and 76% identity with each other. However, active site residues are highly conserved between the homologs. […] This trend was consistent for other analogs from this series (FIG. 14).
as §1

T3 sequence (P10584 whole entry): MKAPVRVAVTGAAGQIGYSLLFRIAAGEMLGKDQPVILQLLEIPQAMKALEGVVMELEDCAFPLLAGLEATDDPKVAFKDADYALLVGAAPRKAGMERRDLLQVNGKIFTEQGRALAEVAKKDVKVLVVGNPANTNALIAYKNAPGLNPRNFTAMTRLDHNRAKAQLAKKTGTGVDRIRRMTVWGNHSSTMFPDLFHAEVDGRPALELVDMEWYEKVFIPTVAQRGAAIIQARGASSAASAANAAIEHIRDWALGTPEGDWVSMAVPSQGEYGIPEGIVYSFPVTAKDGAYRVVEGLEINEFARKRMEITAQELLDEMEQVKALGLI
T2 sequence (Q48485 24-384): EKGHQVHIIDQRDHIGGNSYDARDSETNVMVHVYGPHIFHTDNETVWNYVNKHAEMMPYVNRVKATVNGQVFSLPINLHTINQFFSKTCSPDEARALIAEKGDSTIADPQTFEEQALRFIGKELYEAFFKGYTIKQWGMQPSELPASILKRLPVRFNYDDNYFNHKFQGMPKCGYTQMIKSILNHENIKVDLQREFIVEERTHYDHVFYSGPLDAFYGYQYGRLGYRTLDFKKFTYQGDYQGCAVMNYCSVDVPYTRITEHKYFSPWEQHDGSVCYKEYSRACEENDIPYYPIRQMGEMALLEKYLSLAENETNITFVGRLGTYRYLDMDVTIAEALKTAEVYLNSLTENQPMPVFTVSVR
T1 sequence (P9WIQ1 whole entry): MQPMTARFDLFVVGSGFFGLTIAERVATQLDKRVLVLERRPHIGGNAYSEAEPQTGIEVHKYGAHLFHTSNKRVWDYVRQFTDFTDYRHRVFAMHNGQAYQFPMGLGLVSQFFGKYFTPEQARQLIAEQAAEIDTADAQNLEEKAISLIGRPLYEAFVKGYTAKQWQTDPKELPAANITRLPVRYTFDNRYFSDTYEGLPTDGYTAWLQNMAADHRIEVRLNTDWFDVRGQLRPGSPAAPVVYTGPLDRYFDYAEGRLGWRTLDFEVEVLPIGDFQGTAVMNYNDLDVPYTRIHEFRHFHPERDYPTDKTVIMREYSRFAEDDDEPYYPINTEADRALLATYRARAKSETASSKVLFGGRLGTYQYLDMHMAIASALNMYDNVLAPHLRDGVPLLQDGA
AmpC β-lactamase, sequence (P00811 20-377): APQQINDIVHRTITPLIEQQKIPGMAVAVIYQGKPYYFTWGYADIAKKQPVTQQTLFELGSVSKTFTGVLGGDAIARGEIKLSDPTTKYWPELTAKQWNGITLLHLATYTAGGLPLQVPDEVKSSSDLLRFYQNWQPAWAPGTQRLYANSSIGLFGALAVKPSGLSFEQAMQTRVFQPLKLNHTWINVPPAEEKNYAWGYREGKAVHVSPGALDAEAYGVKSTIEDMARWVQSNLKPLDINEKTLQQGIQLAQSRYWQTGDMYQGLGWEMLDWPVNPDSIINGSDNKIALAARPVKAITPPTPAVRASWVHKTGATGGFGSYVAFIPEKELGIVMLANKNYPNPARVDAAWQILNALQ
T4 sequence (Q6NER4 entry or part of it): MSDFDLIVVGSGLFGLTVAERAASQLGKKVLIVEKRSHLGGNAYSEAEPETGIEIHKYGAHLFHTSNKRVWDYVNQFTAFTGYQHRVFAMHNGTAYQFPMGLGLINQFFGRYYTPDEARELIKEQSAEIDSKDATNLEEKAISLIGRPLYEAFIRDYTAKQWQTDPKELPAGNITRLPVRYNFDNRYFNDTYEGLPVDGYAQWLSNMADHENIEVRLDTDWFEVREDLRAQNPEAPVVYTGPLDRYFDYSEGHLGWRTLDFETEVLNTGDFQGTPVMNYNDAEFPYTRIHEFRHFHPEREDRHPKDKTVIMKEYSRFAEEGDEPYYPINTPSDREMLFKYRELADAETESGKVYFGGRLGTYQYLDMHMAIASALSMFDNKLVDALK

For Cc1ccc(C2=Nn3c(COc4ccc(Cl)cc4)nnc3SC2CC(=O)O)cc1 (stereo not shown) [Compound 24], the “colloidal aggregation by DLS” value ([1]; 100 μM) is given as “form colloidal aggregates; also recorded: do form colloids”, the “colloidal aggregation by DLS” value ([1]; high concentrations) is given as “show aggregation” and the “detection as hit in HTS” value [2] is given as “not detected by HTS”. For the same molecule, the Kd [3] was 9 µM and 9.2 µM.

For O=C(O)CCC(=O)N1N=C(c2ccccc2)CC1c1cccs1 (stereo not shown) [Compound 3], the “detection as hit in HTS” value [2] is given as “not detected by HTS”.

With C=CCNc1nc(-c2cc(C)n(CCC(=O)O)c2C)cs1 [Compound 10] the “colloidal aggregation by DLS” value ([1]; 100 μM) was “do not form detectable colloids; also recorded: no sign of colloidal aggregation”, the “effect of detergent on KpUGM inhibition” value ([4]; 100 μM compound) was “insensitive to detergent” and the Kd [3] was 9 µM and 6 µM. The “inhibition of AmpC β-lactamase” value [5] was “do not display any inhibition”.

With O=C(O)CC1Sc2nnc(Cc3ccc(F)cc3)n2N=C1c1ccccc1 (stereo not shown) [Compound 19] the “colloidal aggregation by DLS” value ([1]; 100 μM) was “form colloidal aggregates; also recorded: do form colloids”, the “colloidal aggregation by DLS” value ([1]; high concentrations) was “show aggregation” and the Kd [3] was 15 µM.

In the case of Cc1cc(-c2csc(NC(C)c3ccccc3)n2)c(C)n1CCC(=O)O (stereo not shown) [Compound 14], the “KpUGM inhibition compared with lead compound 10” value ([4]; in vitro, dose-dependent) is reported as “improved KpUGM inhibition; also recorded: increased dose-dependent KpUGM inhibition”, the “binding compared with compound 10” value ([3]; FP assay) is reported as “slightly tighter binding than compound 10” and the Kd [3] is reported as 4.5 µM.

In the case of O=C(O)CC1Sc2nnc(Cc3ccc(Br)cc3)n2N=C1c1ccc(Cl)cc1 (stereo not shown) [Compound 30], the “colloidal aggregation by DLS” value ([1]; 10 μM) is reported as “does not aggregate”, the “colloidal aggregation by DLS” value ([1]; 100 μM) is reported as “forms colloidal aggregates; also recorded: do form colloids” and the “colloidal aggregation by DLS” value ([1]; high concentrations) is reported as “show aggregation”. The “KpUGM activity in presence of compound” value ([4]; 50 μM compound) was “no measurable activity”, the “KpUGM activity in presence of compound” value ([4]; 100 μM compound) was “no measurable activity” and the “selectivity between UGM homologs” value ([4]; KpUGM vs MtUGM and CdUGM) was “selective for KpUGM over MtUGM and CdUGM”. For the same molecule, the Ki [4] was 1.1 µM, the “potency relative to compound 22 in vitro” value ([4]; from Ki values) was “about 5 fold” and the “effect of detergent on MDH inhibition” value ([6]; addition of detergent) was “fully rescued by the addition of detergent; also recorded: reversible by the addition of detergent”. The IC50 ([6]; full dose response curve, no detergent) was 55.7 µM, the “inhibition of MDH” value ([6]; high concentrations) was “non-specific inhibition” and the MIC ([7]; 46 hours of growth, alamar blue) was 20 µM (≈ 9.56 µg/mL). For the same molecule, the Kd [3] was 4.5 µM and 4.7 µM, the “zone of growth inhibition” value [8] was “significantly smaller than that observed for M. smegmatis” and the MIC [9] was > 500 µM. For the same molecule, the MIC [10] was 500 µM (≈ 239 µg/mL), the “difference between LD50 and MIC for M. smegmatis” value [11] was 5 fold and the cellular toxicity ([11]; HEK293 cells) was “only mildly toxic”. The LD50 ([11]; HEK293 cells, 24 hours) was ~100 µM, the “inhibition of AmpC” value ([5]; high concentrations) was “non-specific inhibition” and the “zone of growth inhibition, comparison within series” value [12] was “outperformed all other compounds of the series”. The “cell-killing in disk diffusion” value [13] was “No cell-killing”.

For O=C(O)CC1Sc2nnc(-c3ccco3)n2N=C1c1ccccc1 (stereo not shown) [Compound 6], the “colloidal aggregation by DLS” value ([1]; 100 μM) was “do not form detectable colloids; also recorded: do not aggregate; also recorded: no sign of colloidal aggregation”, the “effect of detergent on KpUGM inhibition” value ([4]; 100 μM compound) was “insensitive to detergent” and the Ki [4] was 78 µM. For the same molecule, the Kd [3] was 62 µM and 43 µM, the cellular toxicity ([11]; HEK293 cells) was “no significant cellular toxicity” and the “inhibition of AmpC β-lactamase” value [5] was “do not display any inhibition”.

In the case of O=C(O)CC1Sc2nnc(-c3cccs3)n2N=C1c1ccc(Cl)cc1 (stereo not shown) [Compound 22], the “colloidal aggregation by DLS” value ([1]; 100 μM) is reported as “did not show any aggregation; also recorded: do not aggregate; also recorded: no sign of colloidal aggregation”, the Ki [4] is reported as 7 µM and the “M. smegmatis growth repression” value ([7]; tested concentrations) is reported as “no M. smegmatis growth repression”. The “inhibition of MtUGM” value [14] was 19%, the Kd [3] was 9 µM and 9.2 µM and the “inhibition of CdUGM” value [15] was 38%.
